# Laboratory results as given in patent US20180192601A1, “Composition and Process for Producing Plants Using Anthers of Jatropha Species” (Reliance Industries Limited, priority 2017, published 2018).
# Columns and labels:
# Type in all cases: cell-based, Jatropha Curcas
# [1] = test system: anthers of Jatropha; assay: Callus induction (callus formation) from anthers on callus induction composition
# Procedure: The flower bud of about 2.5 mm were selected for excision of anthers. The flower buds were blot dried with several layers of sterile filter papers to remove excess moisture.
# The anthers were excised from unopened flower buds in the laminar air flow (sterile hood) under aseptic conditions.
# About 10 to 12 anthers were inoculated into culture tubes comprising the composition of the present disclosure for callus induction. The inoculated culture tubes were incubated in dark at a temperature of about 25±1° C. for a period ranging from about 25 days to 30 days. The culture tubes were replenished with the composition every three weeks for high frequency induction of callus. […]
# [2] = test system: matured embryoids or small plantlets of Jatropha; assay: Embryo germination and rooting of seedling
# Procedure: The matured embryoids with the photoperiod of 16 hrs light and 8 hrs dark or small plantlets were transferred to the composition of the present disclosure and incubated at temperature ranging from about 25° C. to 28° C. for period of about 25 days to 30 days, for germination, for proliferation of roots and further elongation of shoots.
# Table 4 illustrates the effect of different concentrations of IBA individually and in combination of with various concentrations of phloroglucinol and GA3 on embryo germination and rooting of seedling. Among the tested concentrations, IBA-0.1 mg/l, phloroglucinol—0.5 mg/l; Gibberellic acid-0.5 mg/l observed to be effective in producing more number of roots (6 roots/shoot) in 80% of the cultures; employing the composition comprising 100 ml of MS macro elements (10× concentration), about 25 ml of MS micro elements (100× concentration) about 10 ml of MS vitamins (200× concentration); citric aicd—40 mg/l; PVP—250 mg/l; Ascorbic acid—55 mg/l; myo inositol—100 mg/L; sucrose 20 g/L. Phytagel 1.5 g/l.
# [3] = test system: embryogenic calli of Jatropha anthers; assay: Plant regeneration from embryogenic calli of Jatropha anthers
# Procedure: The calli of size ranging from about 0.5 cm to 1.0 cm (breadth) were divided into small pieces and inoculated in the culture tubes comprising the composition of the present disclosure for induction of somatic embryogenesis.
# The culture tubes showing the developed somatic embryoids were transferred to composition of the present disclosure for somatic embryo maturation and incubated in light culture room for about 16 hours under photoperiod (provided by cool while fluorescent lamp) and under dark for about 8 hours at a temperature of about 25±1° C. This process is continued until somatic embryos get matured and small shoots are visible.
# Regeneration of embryogenic calli or embryoids was stimulated and maintained on various combinations of MSB media. Regenerated shoots were transferred to rooting medium for root development.
# Table 3 illustrates the effect of different concentration of IBA individually and in combination with BAP and Kinetin of different concentrations on plant regeneration from embryogenic calli of Jatropha anthers.
compound,measurement,setting,value
"O=C(O)COc1ccc(Cl)cc1Cl [2,4-D, 2,4-dichloro phenoxy acetic acid]",Callus formation (%),"[1]; 2,4-D 0.5 mg/L",2%
same,Callus formation (%),"[1]; 2,4-D 1 mg/L",2%
same,Callus formation (%),"[1]; 2,4-D 2 mg/L",10%
same,Callus formation (%),"[1]; 2,4-D 3 mg/L",20%
same,Callus formation (%),"[1]; 2,4-D 4 mg/L",35%
same,Callus formation (%),"[1]; 2,4-D 5 mg/L",45%
indole butyric acid [IBA],% of Embryos Germinated,[2]; IBA 0.1 mg/L,0.0%
same,No. of roots/shoot,[2]; IBA 0.1 mg/L,0 roots/shoot
same,% of Embryos Germinated,[2]; IBA 0.2 mg/L,0.0%
same,No. of roots/shoot,[2]; IBA 0.2 mg/L,0 roots/shoot
same,% of Embryos Germinated,[2]; IBA 1.0 mg/L,0.0%
same,No. of roots/shoot,[2]; IBA 1.0 mg/L,0 roots/shoot
same,% of Embryos Germinated,[2]; IBA 2.0 mg/L,0.0%
same,No. of roots/shoot,[2]; IBA 2.0 mg/L,0 roots/shoot
same,% of Embryos Germinated,[2]; IBA 5.0 mg/L,0.0%
same,No. of roots/shoot,[2]; IBA 5.0 mg/L,0 roots/shoot
same,% of cultures showed regeneration,[3]; IBA 0.1 mg/L,0.0%
same,No of Plants/explant,[3]; IBA 0.1 mg/L,0 Plants/explant
same,% of cultures showed regeneration,[3]; IBA 0.2 mg/L,0.0%
same,No of Plants/explant,[3]; IBA 0.2 mg/L,0 Plants/explant
same,% of cultures showed regeneration,[3]; IBA 1.0 mg/L,0.0%
same,No of Plants/explant,[3]; IBA 1.0 mg/L,0 Plants/explant
same,% of cultures showed regeneration,[3]; IBA 2.0 mg/L,0.0%
same,No of Plants/explant,[3]; IBA 2.0 mg/L,0 Plants/explant
same,% of cultures showed regeneration,[3]; IBA 5.0 mg/L,0.0%
same,No of Plants/explant,[3]; IBA 5.0 mg/L,0 Plants/explant
